In the NIST ThermoML archive (doi:10.1021/je200073x):

What was measured:
[1] = molar heat capacity at constant pressure; settings: 101.33 kPa, Liquid, Small sample (50 mg) DSC
[2] = 101.33 kPa, Liquid; for viscosity: Concentric cylinders viscometry; for electrical conductivity: Metler Toledo SevenEasy conductivity meter; for mass density: Vibrating tube method

CCCCCC[n+]1ccn(C)c1.FC(F)(F)C(F)(F)[P-](F)(F)(F)(C(F)(F)C(F)(F)F)C(F)(F)C(F)(F)F
Settings	electrical conductivity [S/m]	mass density [kg/m3]	molar heat capacity at constant pressure [J/K/mol]	viscosity [mPa·s]
[1], 293.15 K	–	–	725.56	–
[1], 294.15 K	–	–	726.17	–
[1], 295.15 K	–	–	726.78	–
[1], 296.15 K	–	–	728.01	–
[1], 297.15 K	–	–	728.62	–
[1], 298.15 K	–	–	729.85	–
[1], 299.15 K	–	–	730.46	–
[1], 300.15 K	–	–	731.68	–
[1], 301.15 K	–	–	732.29	–
[1], 302.15 K	–	–	733.52	–
[1], 303.15 K	–	–	734.13	–
[1], 304.15 K	–	–	735.36	–
[1], 305.15 K	–	–	735.97	–
[1], 306.15 K	–	–	737.19	–
[1], 307.15 K	–	–	737.81	–
[1], 308.15 K	–	–	738.42	–
[1], 309.15 K	–	–	739.64	–
[1], 310.15 K	–	–	740.25	–
[1], 311.15 K	–	–	741.48	–
[1], 312.15 K	–	–	742.09	–
[1], 313.15 K	–	–	743.32	–
[1], 314.15 K	–	–	743.93	–
[1], 315.15 K	–	–	745.15	–
[1], 316.15 K	–	–	745.77	–
[1], 317.15 K	–	–	746.99	–
[1], 318.15 K	–	–	747.6	–
[1], 319.15 K	–	–	748.83	–
[1], 320.15 K	–	–	749.44	–
[1], 321.15 K	–	–	750.05	–
[1], 322.15 K	–	–	751.28	–
[1], 323.15 K	–	–	751.89	–
[1], 324.15 K	–	–	752.5	–
[1], 325.15 K	–	–	753.11	–
[1], 326.15 K	–	–	754.34	–
[1], 327.15 K	–	–	754.95	–
[1], 328.15 K	–	–	756.17	–
[1], 329.15 K	–	–	756.79	–
[1], 330.15 K	–	–	758.01	–
[1], 331.15 K	–	–	758.62	–
[1], 332.15 K	–	–	759.24	–
[1], 333.15 K	–	–	759.85	–
[1], 334.15 K	–	–	760.46	–
[1], 335.15 K	–	–	761.07	–
[1], 336.15 K	–	–	762.3	–
[1], 337.15 K	–	–	762.91	–
[1], 338.15 K	–	–	763.52	–
[1], 339.15 K	–	–	764.75	–
[1], 340.15 K	–	–	765.36	–
[1], 341.15 K	–	–	765.97	–
[1], 342.15 K	–	–	767.2	–
[1], 343.15 K	–	–	767.81	–
[2], 293.15 K	0.1303	1555.6	–	114.3
[2], 298.15 K	0.167	1550.1	–	88.2
[2], 303.15 K	0.209	1544.7	–	68.4
[2], 308.15 K	0.258	1539.3	–	54.1
[2], 313.15 K	0.313	1533.9	–	43.2
[2], 318.15 K	0.374	1528.7	–	35.1
[2], 323.15 K	0.44	1523.5	–	28.9
[2], 328.15 K	0.514	1518	–	24.4
[2], 333.15 K	0.593	1512.6	–	20.3
[2], 338.15 K	0.676	1507.2	–	17.3
[2], 343.15 K	0.769	1501.8	–	14.8

CCCCCCn1cc[n+](C)c1.F[P-](F)(F)(F)(F)F [1-hexyl-3-methylimidazolium hexafluorophosphate]
Settings	electrical conductivity [S/m]	mass density [kg/m3]	molar heat capacity at constant pressure [J/K/mol]	viscosity [mPa·s]
[1], 293.15 K	–	–	421.53	–
[1], 294.15 K	–	–	422.15	–
[1], 295.15 K	–	–	422.78	–
[1], 296.15 K	–	–	423.09	–
[1], 297.15 K	–	–	423.4	–
[1], 298.15 K	–	–	424.02	–
[1], 299.15 K	–	–	424.34	–
[1], 300.15 K	–	–	424.96	–
[1], 301.15 K	–	–	425.27	–
[1], 302.15 K	–	–	426.21	–
[1], 303.15 K	–	–	426.83	–
[1], 304.15 K	–	–	427.15	–
[1], 305.15 K	–	–	427.46	–
[1], 306.15 K	–	–	428.08	–
[1], 307.15 K	–	–	428.71	–
[1], 308.15 K	–	–	429.33	–
[1], 309.15 K	–	–	429.96	–
[1], 310.15 K	–	–	430.58	–
[1], 311.15 K	–	–	431.21	–
[1], 312.15 K	–	–	431.52	–
[1], 313.15 K	–	–	432.14	–
[1], 314.15 K	–	–	432.77	–
[1], 315.15 K	–	–	433.39	–
[1], 316.15 K	–	–	434.02	–
[1], 317.15 K	–	–	434.64	–
[1], 318.15 K	–	–	434.95	–
[1], 319.15 K	–	–	435.58	–
[1], 320.15 K	–	–	436.2	–
[1], 321.15 K	–	–	436.83	–
[1], 322.15 K	–	–	437.45	–
[1], 323.15 K	–	–	437.76	–
[1], 324.15 K	–	–	438.7	–
[1], 325.15 K	–	–	439.32	–
[1], 326.15 K	–	–	439.95	–
[1], 327.15 K	–	–	440.89	–
[1], 328.15 K	–	–	441.82	–
[1], 329.15 K	–	–	442.45	–
[1], 330.15 K	–	–	443.07	–
[1], 331.15 K	–	–	444.01	–
[1], 332.15 K	–	–	444.63	–
[1], 333.15 K	–	–	445.26	–
[1], 334.15 K	–	–	445.88	–
[1], 335.15 K	–	–	446.51	–
[1], 336.15 K	–	–	447.44	–
[1], 337.15 K	–	–	448.07	–
[1], 338.15 K	–	–	448.69	–
[1], 339.15 K	–	–	449.32	–
[1], 340.15 K	–	–	450.25	–
[1], 341.15 K	–	–	450.56	–
[1], 342.15 K	–	–	451.5	–
[1], 343.15 K	–	–	452.44	–
[2], 293.15 K	0.0388	1296.7	–	693.1
[2], 298.15 K	0.0543	1292.9	–	485.8
[2], 303.15 K	0.074	1288.7	–	350.9
[2], 308.15 K	0.0992	1285.1	–	255.4
[2], 313.15 K	0.1301	1281	–	189.4
[2], 318.15 K	0.168	1277	–	147.5
[2], 323.15 K	0.212	1273	–	114.7
[2], 328.15 K	0.264	1269.1	–	91.1
[2], 333.15 K	0.322	1265.2	–	73.5
[2], 338.15 K	0.391	1261.2	–	60
[2], 343.15 K	0.465	1257	–	49.6
